{
  "source": "patent US9464215B2",
  "about": "“Use of a ketal as a solvent in adhesives and ketal-containing adhesive composition” (OXITENO S.A. INDÚSTRIA E COMÉRCIO, priority 2012, dated 2016)",
  "key": {"Water solubility": {"experiment": "Water solubility", "type": "physicochemical", "conditions": "heading: Water solubility"}, "rabbit [1]": {"tested_on": "rabbit", "conditions": "cited from earlier work"}, "[2]": {"experiment": "Solubilization and gel formation of 2 wt% polychloroprene solution", "type": "physicochemical", "conditions": "2% by weight of polymer, rest for 24 hours", "procedure": "A polychloroprene solution was prepared in 2-methyl-2-ethyl-1,3-dioxolane at a concentration of 2% by weight of the polymer, which was allowed to rest for 24 hours. […] Gel formation usually takes place by using toluene or an aromatic hydrocarbon solvent, and was not expected in the case of oxygenated solvents, such as 2-methyl-2-ethyl-1,3-dioxolane."}, "rabbit [3]": {"tested_on": "rabbit", "conditions": "24 hours of exposure; cited from earlier work"}, "rat [4]": {"tested_on": "rat", "conditions": "4 hours of exposure; cited from earlier work"}, "rabbit [5]": {"tested_on": "rabbit", "conditions": "24 hours of exposure; cited from earlier work", "remark": "listed apart in the source"}, "[6]": {"conditions": "IARC, NTP, OSHA, ACGIH; cited from earlier work"}, "rat [7]": {"tested_on": "rat", "conditions": "cited from earlier work"}},
  "data": [
    {"smiles": "CCC1(C)OCCO1", "note": "[2-methyl-2-ethyl-1,3-dioxolane]", "values": [
      {"measurement": "solubility", "setting": "Water solubility", "value": 3260, "unit": "µg/mL"},
      {"measurement": "DL50 (dermal rabbit)", "setting": "rabbit [1]", "value": 10, "unit": "mL/kg"},
      {"measurement": "Gel formation", "setting": "[2]", "value": "formation of a gel was seen"},
      {"measurement": "LCLo/24H (eye irritation - rabbit)", "setting": "rabbit [3]", "value": 500, "unit": "mg/24 H"},
      {"measurement": "LCLo/4 H (inhalation rat)", "setting": "rat [4]", "value": "4,000 ppm/4 H"},
      {"measurement": "LCLo/24 H (skin rash - rabbit)", "setting": "rabbit [5]", "value": 500, "unit": "mg/24 H"},
      {"measurement": "Carcinogenicity listing", "setting": "[6]", "value": "not listed as carcinogenic"},
      {"measurement": "LD50 (oral rat)", "setting": "rat [7]", "value": "2,830 μL/kg"}
    ]}
  ]
}
